Measured values: patent US9145392B2, “Imidazole amines as modulators of kinase activity” (Merck Patent GmbH, priority 2011, dated 2015)

Legend:
[1] = biological target: P70S6K (T412E mutant) (Homo sapiens (Human), UniProt P23443, T412E); experiment: P70S6K enzyme assay; assay type: biochemical; details: read-out: IC50 p70S6K
Summary of the method: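 Phosphorylated product and substrate peptide separated by microfluidic capillary electrophoresis (Caliper LabChip 3000), product peaks resolving before substrate.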

[2] = biological target: His-AKT (Full Length) (Homo sapiens (Human), UniProt P31749); experiment: AKT enzyme assay; assay type: biochemical; details: read-out: IC50 AKT
His-AKT (Full Length), sequence (P31749 whole entry): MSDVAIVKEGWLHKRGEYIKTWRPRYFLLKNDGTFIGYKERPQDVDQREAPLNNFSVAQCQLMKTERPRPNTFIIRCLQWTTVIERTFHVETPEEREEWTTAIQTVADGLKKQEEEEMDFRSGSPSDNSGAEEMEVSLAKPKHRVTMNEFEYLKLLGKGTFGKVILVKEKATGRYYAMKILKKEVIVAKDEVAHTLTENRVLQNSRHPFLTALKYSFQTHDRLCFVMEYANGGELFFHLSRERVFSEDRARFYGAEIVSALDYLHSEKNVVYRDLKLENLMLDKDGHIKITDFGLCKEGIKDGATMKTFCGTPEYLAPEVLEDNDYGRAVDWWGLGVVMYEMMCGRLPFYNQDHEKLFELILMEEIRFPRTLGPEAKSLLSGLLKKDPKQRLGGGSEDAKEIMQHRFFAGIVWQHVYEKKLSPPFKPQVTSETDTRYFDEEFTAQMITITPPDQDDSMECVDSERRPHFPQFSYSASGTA

P70S6K (T412E mutant), sequence (P23443 whole entry T412E): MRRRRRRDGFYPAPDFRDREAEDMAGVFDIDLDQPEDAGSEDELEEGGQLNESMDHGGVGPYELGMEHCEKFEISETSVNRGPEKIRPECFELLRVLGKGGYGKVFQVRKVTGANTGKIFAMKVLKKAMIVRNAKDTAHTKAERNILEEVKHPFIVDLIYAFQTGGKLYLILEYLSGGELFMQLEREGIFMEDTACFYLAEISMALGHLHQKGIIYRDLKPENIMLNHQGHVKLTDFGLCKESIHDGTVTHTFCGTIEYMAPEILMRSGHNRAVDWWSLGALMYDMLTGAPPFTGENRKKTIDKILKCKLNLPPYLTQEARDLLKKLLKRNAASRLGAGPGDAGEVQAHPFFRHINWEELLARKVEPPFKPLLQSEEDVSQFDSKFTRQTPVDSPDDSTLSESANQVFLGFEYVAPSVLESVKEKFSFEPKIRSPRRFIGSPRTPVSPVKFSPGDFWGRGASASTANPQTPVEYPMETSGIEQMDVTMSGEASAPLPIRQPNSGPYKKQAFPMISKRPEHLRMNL

Structure (SMILES) | IC50 [1] | IC50 [2]
CCc1c(N)ncnc1N1CCC(c2nc(-c3ccnc(C)c3)cn2CCN2CCC2)CC1 [Compound 111, 6-(4-(1-(2-(azetidin-1-yl)ethyl)-4-(2-methylpyridin-4-yl)-1H-imidazol-2-yl)piperidin-1-yl)-5-ethylpyrimidin-4-amine] | 8.7 nM | 106 nM
CCc1c(N)ncnc1N1CCC(c2nc(-c3ccnc(OC)c3)cn2CCN2CCC2)CC1 [Compound 112, 6-(4-(1-(2-(azetidin-1-yl)ethyl)-4-(2-methoxypyridin-4-yl)-1H-imidazol-2-yl)piperidin-1-yl)-5-ethylpyrimidin-4-amine] | 64.5 nM | 940 nM
CCc1c(N)ncnc1N1CCC(c2nc(-c3cncc(C)c3)cn2CCN2CCC2)CC1 [Compound 113, 6-(4-(1-(2-(azetidin-1-yl)ethyl)-4-(5-methylpyridin-3-yl)-1H-imidazol-2-yl)piperidin-1-yl)-5-ethylpyrimidin-4-amine] | 84 nM | 465 nM
CC(C)c1c(N)ncnc1N1CCC(c2nc(-c3ccc(F)c(C(F)(F)F)c3)cn2CCN2CCC2)CC1 [Compound 114, 6-(4-(1-(2-(azetidin-1-yl)ethyl)-4-(4-fluoro-3-(trifluoromethyl)phenyl)-1H-imidazol-2-yl)piperidin-1-yl)-5-isopropylpyrimidin-4-amine] | 3.6 nM | 6.6 nM
COc1c(N)ncnc1N1CCC(c2nc(-c3ccnc(C(F)(F)F)c3)cn2CCN2CCC2)CC1 [Compound 115, 6-(4-(1-(2-(azetidin-1-yl)ethyl)-4-(2-(trifluoromethyl)pyridin-4-yl)-1H-imidazol-2-yl)piperidin-1-yl)-5-methoxypyrimidin-4-amine] | 2.8 nM | 21 nM
CCOc1c(N)ncnc1N1CCC(c2nc(-c3ccnc(C(F)(F)F)c3)cn2CCN2CCC2)CC1 [Compound 116, 6-(4-(1-(2-(azetidin-1-yl)ethyl)-4-(2-(trifluoromethyl)pyridin-4-yl)-1H-imidazol-2-yl)piperidin-1-yl)-5-ethoxypyrimidin-4-amine] | 2.4 nM | 8.2 nM
CC(C)Oc1c(N)ncnc1N1CCC(c2nc(-c3ccnc(C(F)(F)F)c3)cn2CCN2CCC2)CC1 [Compound 117, 6-(4-(1-(2-(azetidin-1-yl)ethyl)-4-(2-(trifluoromethyl)pyridin-4-yl)-1H-imidazol-2-yl)piperidin-1-yl)-5-isopropoxypyrimidin-4-amine] | 4.9 nM | 9.1 nM
Nc1ncnc(N2CCC(c3nc(-c4ccnc(C(F)(F)F)c4)cn3CCN3CCC3)CC2)c1OCC(F)(F)F [Compound 118, 6-(4-(1-(2-(azetidin-1-yl)ethyl)-4-(2-(trifluoromethyl)pyridin-4-yl)-1H-imidazol-2-yl)piperidin-1-yl)-5-(2,2,2-trifluoroethoxy)pyrimidin-4-amine] | 9.7 nM | 21 nM
CCc1c(N)ncnc1N1CCC(c2nc(-c3cccc(C(F)(F)F)n3)cn2CCN2CCC2)CC1 [Compound 119, 6-(4-(1-(2-(azetidin-1-yl)ethyl)-4-(6-(trifluoromethyl)pyridin-2-yl)-1H-imidazol-2-yl)piperidin-1-yl)-5-ethylpyrimidin-4-amine] | 25 nM | 420 nM
COc1cc(-c2cn(CCN3CCC3)c(C3CCN(c4ncnc(N)c4C#N)CC3)n2)ccc1F [Compound 120, 4-amino-6-(4-(1-(2-(azetidin-1-yl)ethyl)-4-(4-fluoro-3-methoxyphenyl)-1H-imidazol-2-yl)piperidin-1-yl)pyrimidine-5-carbonitrile] | 1 nM | 2.4 nM
COc1cc(-c2cn(CCN3CCC3)c(C3CCN(c4ncnc(N)c4C(N)=O)CC3)n2)ccc1F [Compound 121, 4-amino-6-(4-(1-(2-(azetidin-1-yl)ethyl)-4-(4-fluoro-3-methoxyphenyl)-1H-imidazol-2-yl)piperidin-1-yl)pyrimidine-5-carboxamide] | 1 nM | 2.4 nM
Cc1cc(-c2cn(CCN3CCC3)c(C3CCN(c4ncnc(N)c4C#N)CC3)n2)ccc1F [Compound 122, 4-amino-6-(4-(1-(2-(azetidin-1-yl)ethyl)-4-(4-fluoro-3-methylphenyl)-1H-imidazol-2-yl)piperidin-1-yl)pyrimidine-5-carbonitrile] | 0.7 nM | 2 nM
NC(=O)c1c(N)ncnc1N1CCC(c2nc(-c3ccnc(C(F)(F)F)c3)cn2CCN2CCC2)CC1 [Compound 128] | 5.5 nM | 90 nM

Now from value to molecule:

IC50 [1] | IC50 [2] | Structure (SMILES)
2 nM | 14 nM | Cc1cc(-c2cn(CCN3CCC3)c(C3CCN(c4ncnc(N)c4C(N)=O)CC3)n2)ccc1F [Compound 124, 4-amino-6-(4-(1-(2-(azetidin-1-yl)ethyl)-4-(4-fluoro-3-methylphenyl)-1H-imidazol-2-yl)piperidin-1-yl)pyrimidine-5-carboxamide]
1.5 nM | 9.7 nM | N#Cc1c(N)ncnc1N1CCC(c2nc(-c3ccnc(C(F)(F)F)c3)cn2CCN2CCC2)CC1 [Compound 125, 4-amino-6-(4-(1-(2-(azetidin-1-yl)ethyl)-4-(2-(trifluoromethyl)pyridin-4-yl)-1H-imidazol-2-yl)piperidin-1-yl)pyrimidine-5-carbonitrile]
0.5 nM | 2.2 nM | Nc1ncnc(N2CCC(c3nc(-c4ccnc(C(F)(F)F)c4)cn3CCN3CCC3)CC2)c1Br [Compound 126, 6-(4-(1-(2-(azetidin-1-yl)ethyl)-4-(2-(trifluoromethyl)pyridin-4-yl)-1H-imidazol-2-yl)piperidin-1-yl)-5-bromopyrimidin-4-amine]
1 nM | 2.8 nM | Nc1ncnc(N2CCC(c3nc(-c4ccnc(C(F)(F)F)c4)cn3CCNCCCCl)CC2)c1Br [Compound 127, 5-bromo-6-(4-(1-(2-((3-chloropropyl)amino)ethyl)-4-(2-(trifluoromethyl)pyridin-4-yl)-1H-imidazol-2-yl)piperidin-1-yl)pyrimidin-4-amine]
11 nM | 250 nM | N#Cc1c(N)ncnc1N1CCC(c2nc(-c3ccoc3)cn2CCN2CCC2)CC1 [Compound 129, 4-amino-6-(4-(1-(2-(azetidin-1-yl)ethyl)-4-(furan-3-yl)-1H-imidazol-2-yl)piperidin-1-yl)pyrimidine-5-carbonitrile]
2.6 nM | 91 nM | N#Cc1c(N)ncnc1N1CCC(c2nc(-c3ccsc3)cn2CCN2CCC2)CC1 [Compound 130, 4-amino-6-(4-(1-(2-(azetidin-1-yl)ethyl)-4-(thiophen-3-yl)-1H-imidazol-2-yl)piperidin-1-yl)pyrimidine-5-carbonitrile]
5.7 nM | 165 nM | N#Cc1c(N)ncnc1N1CCC(c2nc(-c3ccccc3)cn2CCN2CCC2)CC1 [Compound 131, 4-amino-6-(4-(1-(2-(azetidin-1-yl)ethyl)-4-phenyl-1H-imidazol-2-yl)piperidin-1-yl)pyrimidine-5-carbonitrile]
23 nM | 220 nM | N#Cc1c(N)ncnc1N1CCC(c2nc(-c3cnoc3)cn2CCN2CCC2)CC1 [Compound 132, 4-amino-6-(4-(1-(2-(azetidin-1-yl)ethyl)-4-(isoxazol-4-yl)-1H-imidazol-2-yl)piperidin-1-yl)pyrimidine-5-carbonitrile]
46 nM | 3600 nM | NC(=O)c1c(N)ncnc1N1CCC(c2nc(-c3ccoc3)cn2CCN2CCC2)CC1 [Compound 133, 4-amino-6-(4-(1-(2-(azetidin-1-yl)ethyl)-4-(furan-3-yl)-1H-imidazol-2-yl)piperidin-1-yl)pyrimidine-5-carboxamide]
6 nM | 1900 nM | NC(=O)c1c(N)ncnc1N1CCC(c2nc(-c3ccsc3)cn2CCN2CCC2)CC1 [Compound 134, 4-amino-6-(4-(1-(2-(azetidin-1-yl)ethyl)-4-(thiophen-3-yl)-1H-imidazol-2-yl)piperidin-1-yl)pyrimidine-5-carboxamide]
860 nM | 760 nM | NC(=O)c1c(N)ncnc1N1CCC(c2nc(-c3cnoc3)cn2CCN2CCC2)CC1 [Compound 135, 4-amino-6-(4-(1-(2-(azetidin-1-yl)ethyl)-4-(isoxazol-4-yl)-1H-imidazol-2-yl)piperidin-1-yl)pyrimidine-5-carboxamide]
8.4 nM | 1900 nM | NC(=O)c1c(N)ncnc1N1CCC(c2nc(-c3ccccc3)cn2CCN2CCC2)CC1 [Compound 136, 4-amino-6-(4-(1-(2-(azetidin-1-yl)ethyl)-4-phenyl-1H-imidazol-2-yl)piperidin-1-yl)pyrimidine-5-carboxamide]
2.7 nM | 11 nM | N#Cc1c(N)ncnc1N1CCC(c2nc(-c3ccc(F)c(C(F)(F)F)c3)cn2C2CCNC2)CC1 (stereo not shown) [Compound 137, 4-amino-6-(4-(4-(4-fluoro-3-(trifluoromethyl)phenyl)-1-(pyrrolidin-3-yl)-1H-imidazol-2-yl)piperidin-1-yl)pyrimidine-5-carbonitrile]
1.7 nM | 100 nM | NC(=O)c1c(N)ncnc1N1CCC(c2nc(-c3ccc(F)c(C(F)(F)F)c3)cn2C2CCNC2)CC1 (stereo not shown) [Compound 138, 4-amino-6-(4-(4-(4-fluoro-3-(trifluoromethyl)phenyl)-1-(pyrrolidin-3-yl)-1H-imidazol-2-yl)piperidin-1-yl)pyrimidine-5-carboxamide]
1.1 nM | 6.6 nM | CCc1c(N)ncnc1N1CCC(c2nc(-c3ccc(F)c(C(F)(F)F)c3)cn2CCN)CC1 [Compound 139, 6-(4-(1-(2-aminoethyl)-4-(4-fluoro-3-(trifluoromethyl)phenyl)-1H-imidazol-2-yl)piperidin-1-yl)-5-ethylpyrimidin-4-amine]
2.2 nM | 27 nM | NC(=O)c1c(N)ncnc1N1CCC(c2nc(-c3ccc(F)c(C(F)(F)F)c3)cn2CC2CNC2)CC1 [Compound 140, 4-amino-6-(4-(1-(azetidin-3-ylmethyl)-4-(4-fluoro-3-(trifluoromethyl)phenyl)-1H-imidazol-2-yl)piperidin-1-yl)pyrimidine-5-carboxamide]
